Results: patent US9056923B2, “Mimetic peptides derived from collagen type IV and their use for treating angiogenesis- and lymphagiogenesis-dependent diseases” (THE JOHNS HOPKINS UNIVERSITY, priority 2010, dated 2015)
Entries after “also recorded” stand apart in the source; their conditions may differ. Where two headings read alike, the source gives them in different places. Ends that are not written are not given here.

Experiments:
[1] = test system: MDA-MB-231 breast cancer cells; test: MDA-MB-231 adhesion assay; assay type: cell-based
Experimental: (§1) Similar to the migration assays, the inhibition activity of the peptide in cellular adhesion was assessed using the RT-CIM technology. In this case, 25,000 cells/well were plated in 16 wells E-plates (Roche, Basel Switzerland) in the presence or absence of the peptide. The adhesion was monitored over time (3 hours) by measuring changes in the electrical impedance, which is a direct measure of the cells adhering on the electrodes. […] Assays were performed in at least two independent replicates and each replicate was performed using two experimental duplicates.

HUVEC [2] = test: HUVEC migration assay (RT-CIM); assay type: cell-based, human
Summary of the method: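 Real-time impedance (RT-CIM) transwell migration through fibronectin-coated (20 μg/mL) 8 μm membranes; 45,000 cells/well in serum-free medium ± peptides, fully supplemented EBM-2 as chemoattractant below. Cell index recorded over 20 h at 37 °C; ≥2 independent replicates, each in duplicate.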

HUVEC [3] = assay type: cell-based, human
Summary of the method: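 HUVEC plated at 2000 cells/well overnight, then exposed to peptides in fully supplemented medium for three days. WST-1 added in serum-free EBM-2 for four hours and absorbance read at 450 nm. Percent live cells taken relative to untreated cells in complete medium with 0.2% DMSO.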

[4] = test system: lymphatic endothelial cells (LEC); test: LEC adhesion assay; assay type: cell-based
Experimental: as §1

[5] = test system: choroidal neovascularization; test: Laser-induced choroidal neovascularization model; assay type: in vivo, C57BL/6 mice; conditions: 0.01, 0.1, or 1 μg into the mouse eye
Experimental: The ocular laser-induced choroidal neovascularization (NV) model of wet age-related macular degeneration was used for testing. 5-6-week-old female pathogen-free C57BL/6 mice were anesthetized with ketamine hydrochloride (100 mg/kg body weight) and pupils were dilated. Laser photocoagulation (75-μm spot size, 0.1-sec duration, 120 mW) was performed in the 9, 12, and 3 o'clock positions of the posterior pole of each eye with the slit lamp delivery system of an OcuLight GL diode laser (Iridex, Mountain View, Calif.) and a handheld cover slip as a contact lens to view the retina. Production of a tissue bubble by the laser, which indicates rupture of Bruch's membrane, is an important factor in obtaining choroidal NV; therefore, only burns in which a bubble is produced are included in the study. […] At day 7 the mice that received the naked peptides were dosed again whereas the mice that received the particles were administered PBS. Intravitreous injections were done under a dissecting microscope with a Harvard Pump Microinjection System and pulled glass micropipettes. After 14 days, the mice were perfused with 1 mL of PBS containing 50 mg/mL of fluorescein-labeled dextran (2×10^6 Daltons average molecular weight; Sigma-Aldrich, St. Louis, Mo.) and choroidal flat mounts were examined by fluorescence microscopy. Images were captured with a Nikon Digital Still Camera DXM1200 (Nikon Instruments Inc., New York, N.Y.). Image analysis software (Image-Pro Plus; Media Cybernetics, Silver Spring, Md.) was used to measure the total area of choroidal NV at each rupture site with the investigator masked with respect to treatment group.

[6] = test system: MDA-MB-231 breast cancer cells; test: MDA-MB-231 wound healing type migration assay (Oris Pro); assay type: cell-based
Experimental: Breast cancer cells MDA-MB-231 are not suitable for the RT-CIM type experiments due to their thin elongated phenotype, thus the inhibition of migration was investigated using a wound healing type assay. This assay was performed using the Oris Pro Migration assay (Platypus Technologies, CMA 1.101). Briefly, 20,000-25,000 cells/well in full media were added to the 96 well plate containing stoppers to block migration of cells to the center region of the wells. Cells were allowed to adhere for 4 hours, after which the stoppers were removed. Cells were washed one time with PBS and fully supplemented media, with or without compound, was added to the wells. […], cells were stained with calcein AM (0.5 μg/mL) (Invitrogen, CA) and the cells that migrated to the center of the well were quantified by fluorescence intensity measured using a Victor V plate reader (Perkin Elmer) and also imaged using a Leica or Nikon microscope.

Substance: LRRFSTMPFMFININNVINF-NH2 [SP2024]
- inhibition of adhesion of MDA-MB-231 cells [1]: strong; also recorded: inhibition of cell adhesion
- Migration Inhibition (5 uM) (HUVEC [2]; 5 uM peptide): 37.73%
- Activity in Migration (HUVEC [2]; Yes/No summary, active = inhibitory potential greater than 30%): Yes
- IC50 (HUVEC [3]): 1.29 µM
- Activity in Proliferation (HUVEC [3]; HUVEC, Yes/No summary): Yes
- IC50 (HUVEC [3]; HUVEC, tables 5, 8-10 and text, read-out: IC50 ± 95% CI (μM), proliferation): 7.45 ± 5.7 µM
- inhibition of adhesion of LEC [4]: strong
- area of choroidal neovascularization [5]: generally decreased
- inhibition of migration of MDA-MB-231 cells [6]: strong; also recorded: inhibition of cell migration
